The source of these data is patent US7576224B2, “Insecticidal (dihalopropenyl) phenylalkyl substituted dihydrobenzofuran and dihydrobenzopyran derivatives” (FMC Corporation, priority 2003, dated 2009).

For series [1], the system named is tobacco budworm (Heliothis virescens [Fabricius]). The experiment in a line: Foliar treated test against tobacco budworm (chick pea plants). In kind it is in vivo. To be noted: rate of application 30 ppm; foliage; 96 hour exposure. An excerpt: (§1) Foliar Treated Test Against Tobacco Budworm and Cabbage Looper
(§2) Nine-to-ten day-old chick pea plants (Cicer arietinum) were sprayed at 15 psi to runoff on both upper and lower leaf surfaces with solutions of test compound to provide application rates as high as 1000 ppm of test chemical. The solvent used to prepare the solutions of test compound was 10% acetone or methanol (v/v) and 0.1% of the surfactant octylphenoxypolyethoxyethanol in distilled water. Four replicates, each containing one chick pea plant, for each rate of application of test compound were sprayed. The treated plants were transferred to a hood where they were kept until the spray had dried.
(§3) The four chick pea plants for each replicate treated with test compound as described above were removed from their pots by cutting the stems just above the soil line. The excised leaves and stems from the four plants in each replicate were placed in individual 237 mL (8-ounce) paper cups, which contained a moistened filter paper. Five second-instar (7 days old) tobacco budworms or cabbage loopers (7 days old) were counted into each cup, taking care not to cause injury. An opaque plastic lid was placed on each cup, which was then held in a growth chamber for a 96 hour exposure period at 25° C., 50% relative humidity and photo-period of 12 hours light and 12 hours dark. At the end of the 96 hour exposure period the cups were opened, and the numbers of dead, moribund, and live insects were counted. Using the insect counts, the efficacy of the test compound was expressed in percent control. Percent control is derived from the total number of dead insects (TD) plus the total number of moribund insects (TM) as compared to the total number of insects (TI) in the test:
(§4) The condition of the test plants was also observed for phytotoxicity and for reduction of feeding damage as compared to an untreated control.

For series [2], the system named is cabbage looper (Trichoplusia ni [Hubner]). The experiment in a line: Foliar treated test against cabbage looper (chick pea plants). The format is in vivo. To be noted: rate of application 30 ppm; foliage; 96 hour exposure.
Description: as §1, §2, §3, §4

In series [3] the test system is Diamondback Moth (Plutella xylostella). Briefly: Foliar treated test against diamondback moth (cabbage leaf discs). The settings on record: rate of application 30 ppm; foliage; 96 hour exposure. The format is in vivo. How it is done:
Four replicates, each containing one cabbage leaf disc, for each rate of application of test compound were dipped. The four cabbage leaf discs for each replicate treated were immersed for five seconds in the solution of test compound as described above. Each discs was then placed in individual 50 mm Petrie dishes containing a filter paper 42.5 mm in diameter that had been moistened with 100 μL of water. The uncovered Petrie dishes were then set aside until the leaf discs were dry. After this time, two third-instar diamondback moth larvae (10-14 days old) were carefully placed on each leaf disc. A tight-fitting lid was then placed on each Petrie dish, which was which was then held in a growth chamber for a 96 hour exposure period at 25° C., 50% relative humidity and photo-period of 12 hours light and 12 hours dark. At the end of the 96 hour exposure period the Petrie dishes were uncovered, and the numbers of dead, moribund, and live insects were counted. Using the insect counts, the efficacy of the test compound was expressed in percent control by methods set forth above in tests against the tobacco budworm and cabbage looper.

A short description of series [4]: Photostability (rate of photolysis, thin film on glass, Suntest CPS illuminator). To be noted: for Percent of Compound 12 Half-life: relative photolysis half-life compared to compound 12; for Photolysis Half-life: thin film on glass coverslips, filtered xenon lamp, about 25° C. In kind it is physicochemical. How it is done: These tests were conducted in the following manner:
For each compound tested, three glass microscope coverslips (12 mm in diameter) for each illumination period (1, 3, 6, 12, and 24 hours) were spotted with 10 microliters of a one mg/mL acetonitrile or methanol solution of test compound. Three coverslips were also spotted with test compound and were not illuminated. The material on these non-illuminated coverslips was analyzed at the end of the experiment as described below to determine the test compound stability on glass. The solvents in each 10 microliter solution on each coverslip were allowed to evaporate leaving a thin film of test compound on each coverslip. Three of the coverslips representing the zero hour illumination period were then placed in a 20 mL scintillation vial. In the vial was placed one mL of acetonitrile, which extracted the test chemical from the coverslip. The solution was then transferred to a two-dram vial for analysis by HPLC. The average HPLC peak area generated by this sample defined the initial level of test compound. The remaining coverslips were then placed in the water-cooled chamber of the exposure platform of a Suntest CPS illuminator (Heraeus Instruments GmbH; Bereich Original Hanau, Hersaeusstrasse R-14, Postfach 1563, D-6450 Hanau 1). The exposure platform was covered with a quartz plate and maintained at about 25° C. for the duration of the test. The Suntest CPS illuminator employs a filtered xenon lamp, which provides illumination of a similar spectrum and intensity as sunlight. Three coverslips for each test compound were removed from the illuminator at 1, 3, 6, 12, and 24 hours of continuous illumination. Approximately eight hours of illumination is equivalent to one summer day at 40° N latitude. The three coverslips from each of the illumination periods were treated as described above and analyzed by HPLC. The average HPLC peak area from each of these illumination periods represents a diminished amount of test compound when compared to the initial level of test compound as determined from the zero hour illumination sample. The percents of test compound remaining from each of these illumination periods were used to generate a degradation curve from which a half-life in hours was determined for each test compound.

Series [5] deals with tobacco budworm (Heliothis virescens [Fabricius]). Briefly: Surface-treated diet test against tobacco budworm. To be noted: 0.25 millimolar on the surface of the diet, second instar larvae, five-day exposure; for Percent Growth Inhibition: insect weight relative to untreated controls. The format is in vivo. From the text:
Surface-Treated Diet Test Against Tobacco Budworm
The test compounds of formula I are identified by numbers that correspond to those in Table 1.

The next series has as its system cabbage looper. Briefly: Whole plant foliar treated test against cabbage looper. In kind it is in vivo, Trichoplusia ni. The settings on record: cabbage plants sprayed, 96 hour exposure; for Percent Control at 25 g: rate of application 25 g; for Percent Control at 50 g: rate of application 50 g; for Percent Control at 100 g: rate of application 100 g. How it is done: Whole Plant Foliar Treated Test Against Cabbage Looper
For each rate of application of test compound, a 15 mL aliquot of test solution was prepared. Sufficient test compound was dissolved in 1.5 mL of acetone to provide an application rate as high as 1000 grams/Ha. Each solution was then added to 13.5 mL of water containing 300 ppm of a surfactant. There were four replicates for each rate of application of test compound, and all tests included a known chemical standard as well as a standard of water and surfactant and untreated checks.
A maximum of 14 appropriately sized cabbage plants for each rate of application and replicate were arranged in a 28 pot plastic flat and sprayed with the 15 mL sample of test compound using an traveling boom sprayer equipped with a cone spray tip at a rate of 30 gallons/acre under a pressure of 40-44 psi. The untreated checks were sprayed first, followed by the test compounds and standards, all in order of lowest to highest rates of application. Once the spraying was complete, the test plants were allowed to air-dry on the conveyor on which they were sprayed.
For each rate of application and replication, sufficient Petrie dishes, 50×9 mm in size, were lined with filter paper disks and each were moistened with 0.5 mL of distilled water. From each replicate cabbage plant at least three 2.5 cm disks were cut Each leaf disk was then placed in an individual Petrie dishes with the adaxial side of the leaf facing up. Following placement of the leaf disks, two neonate cabbage looper larvae were placed on each disk. Upon completion of infestation each Petrie dish was covered and held in a growth chamber for a 96 hour exposure period at 25° C., 40%-60% relative humidity and photo-period of 12 hours light and 12 hours dark. At the end of the 96 hour exposure period the Petrie dishes were opened, and the numbers of dead, moribund, and live insects were counted. Using the insect counts, the efficacy of the test compound was expressed in percent control. Percent control is derived from the total number of dead insects (TD) plus the total number of moribund insects (TM) as compared to the total number of insects (TI) in the test:
[formula] The condition of the test plants was also observed for phytotoxicity and for reduction of feeding damage as compared to an untreated control.

Regarding `ClC(Cl)=CCOc1cc(Cl)c(OCCCCOc2cccc3ccoc23)c(Cl)c1` [Compound W], the “Percent Control TBW (Tobacco Budworm)” value in series [1] amounted to 62%. Also, the “Percent Control CL (Cabbage Looper)” value in series [2] was 20%. Moreover, the “Percent Control DBM (Diamondback Moth)” value in series [3] stood at 60%. In addition, in series [4], the “Percent of Compound 12 Half-life” value turned out to be 58% and the “Photolysis Half-life” value stood at 11 h.

Turning to `CC1(C)Cc2cccc(OCCCCOc3c(Cl)cc(OCC=C(Cl)Cl)cc3Cl)c2O1` [Compound 12, 5-(3,3-Dichloroprop-2-enyloxy)-2-[4-(2,2-dimethyl(2,3-dihydrobenzo[2,3-b]furan-7-yloxy))butoxy]-1,3-dichlorobenzene], in series [5], the “Percent Mortality” value was determined as 100% and the “Percent Growth Inhibition” value was 100%. In series [1], the “Percent Control TBW (Tobacco Budworm)” value came to 88%. Besides, the “Percent Control CL (Cabbage Looper)” value in series [2] amounted to 96%. In series [3], the “Percent Control DBM (Diamondback Moth)” value is on record as 91%. Further, in the series on cabbage looper, the “Percent Control at 25 g” value was found to be 88%, the “Percent Control at 50 g” value is reported as 100% and the “Percent Control at 100 g” value amounted to 100%. Also, in series [4], the “Percent of Compound 12 Half-life” value stood at 100% and the “Photolysis Half-life” value amounted to 19 h.

Take `Cc1cc2cccc(OCCCCOc3c(Cl)cc(OCC=C(Cl)Cl)cc3Cl)c2o1` [X]: the “Percent Control TBW (Tobacco Budworm)” value in series [1] is reported as 96%. In series [2], the “Percent Control CL (Cabbage Looper)” value came out at 50%. For the same compound, the “Percent Control DBM (Diamondback Moth)” value in series [3] is 85%. In the series with cabbage looper, the “Percent Control at 25 g” value stood at 8%, the “Percent Control at 50 g” value stood at 8% and the “Percent Control at 100 g” value was found to be 13%. Besides, in series [4], the “Percent of Compound 12 Half-life” value came to 32% and the “Photolysis Half-life” value worked out at 6 h.

Regarding `ClC(Cl)=CCOc1cc(Cl)c(OCCCCCc2cc3ccccc3o2)c(Cl)c1` [Y], in series [1], the “Percent Control TBW (Tobacco Budworm)” value came to 5%. In series [4], the “Percent of Compound 12 Half-life” value is on record as 21% and the “Photolysis Half-life” value was 4 h.

As for `CC1(C)Cc2cc(C(F)(F)F)cc(OCCCCOc3c(Cl)cc(OCC=C(Cl)Cl)cc3Cl)c2O1` [Compound 20, 5-(3,3-dichloroprop-2-enyloxy)-2-{4-[2,2-dimethyl-5-(trifluoromethyl)(2,3-dihydrobenzo[2,3-b]furan-7-yloxy)]-butoxy}1,3-dichlorobenzene], in series [5], the “Percent Mortality” value came out at 100% and the “Percent Growth Inhibition” value is on record as 100%.

For the compound `CC1(C)Cc2cccc(OC(=O)NCCCOc3c(Cl)cc(OCC=C(Cl)Cl)cc3Cl)c2O1` [Compound 53, N-{3-[4-(3,3-dichloroprop-2-enyloxy)-2,6-dichlorophenoxy]propyl}(2,2-dimethyl(2,3-dihydrobenzo[2,3-b]furan-7-yloxy))-carboxamide], in series [5], the “Percent Mortality” value was 100% and the “Percent Growth Inhibition” value amounted to 100%.

In the case of `ClC(Cl)=CCOc1cc(Cl)c(OCCCCOc2cccc3occc23)c(Cl)c1` [Z], the “Percent Control TBW (Tobacco Budworm)” value in series [1] is recorded as 60%. Besides, in series [2], the “Percent Control CL (Cabbage Looper)” value was determined as 20%. In series [3], the “Percent Control DBM (Diamondback Moth)” value is 60%. Also, in series [4], the “Percent of Compound 12 Half-life” value is 21% and the “Photolysis Half-life” value was determined as 4 h.
